Structures are written as SMILES. Some results are limits rather than exact numbers.

The inhibition is how much of the control response was suppressed. The IC50 is the concentration that gives 50% inhibition.

In experiment [1] the target is BRD4-BD1-BD2 (Homo sapiens (Human), UniProt O60885). The experiment is described as follows: AlphaScreening assay, recombinant BRD4-BD1-BD2 and BET Ligand. In kind it is binding. As to conditions: 2.5 nM BRD4-BD1-BD2, BET Ligand. The method, then:
Assays were performed by AlphaScreening technology using a recombinant BRD4-BD1-BD2 and BET Ligand. The AlphaScreening signal from the assay was correlated with the amount of BET Ligand binding to the bromodomain. The compounds were diluted in 50% DMSO and 1 μl of the dilution was added to a 10 μl reaction so that the final concentration of DMSO is 5% in all of reactions. All reactions were conducted at room temperature. The 9 μl reaction mixture in BRD Assay Buffer contains 2.5 nM BRD4-BD1-BD2 and the indicated amount of the inhibitor, and the reaction mixture were incubated for 30 min followed by additional 30 min incubation after the addition of 1 μl of BET Ligand (Table 2.3.1). For the negative control (blank), 1 μl of the assay buffer was added instead of the BET Ligand. After the 30 min incubation with the BET Ligand, 20 μl of BRD Detection buffer containing 10 μg/ml Glutathione acceptor beads and 10 μg/ml Streptavidin Donor beads was added and the final 30 μl mixture was incubated for 50 min in a dark room.
AlphaScreening signal was measured using EnSpire Alpha 2390 Multilabel reader (Perkin Elmer). Binding experiments were performed in duplicate at each concentration. The AlphaScreening data were analyzed using the computer software, Graphpad Prism. In the absence of the compound, the AlphaScreening signal (At) in each data set was defined as 100% activity. In the absence of the BET Ligand, the AlphaScreening signal (Ab) in each data set was defined as 0% activity. The percent activity in the presence of each compound was calculated according to the following equation: % activity=[(A−Ab)/(At−Ab)]×100, where A=the AlphaScreening signal in the presence of the compound, Ab=the AlphaScreening signal in the absence of the BET Ligand, and At=the AlphaScreening signal in the absence of the compound. The percent inhibition was calculated for certain compounds according to the following equation: % inhibition=100−% activity.

Experiment [2] relates to MV4-11 acute myeloid leukemia cells. The experiment is described as follows: In vitro cell viability (AlamarBlue), MV4-11. The experiment is classed as cell-based. As to conditions: Homo sapiens, MV4-11 cells, 72-hour incubation, read-out: In Vitro Cell Viability (IC50) MV4-11 Cells (AML). As to the method: MV4-11 acute myeloid leukemia cells (American Type Culture Collection, Manassas, Va.) were added to 96-well clear bottom assay plates containing RPMI-1640 medium supplemented with 10% fetal bovine serum (FBS) at approximately 30,000 cells/well and incubated for 24 hours at 37° C. with 5% CO2 and 95% humidity. Control wells containing no cells were included to measure background fluorescence signal. Test compounds were dissolved at […] and diluted two-fold in DMSO to produce a working stock of compound solutions. Aliquots of the working stock solutions were subsequently diluted 100-fold in basal RPMI-1640 medium which was then further diluted 10-fold to the assay plate containing the cells to provide 10 test concentrations ranging from 0.04 μM-20 μM. Following a 72-hour incubation period, viability of the cells was determined by the AlamarBlue® assay (Life Technologies, Carlsbad, Calif.) following the manufacturer's protocol. Prior to generation of dose response curves, the data were background subtracted using the no cell control values (mean+/−standard deviation) and fluorescence values versus Log10 concentration of test compounds were plotted using GraphPad Prism. The resulting sigmoidal curve was then fit to the graph and IC50 values were calculated using a 4 parameter (4PL) algorithm using the following equation: 4(PL)F(x)=(A−D)/(1+(x/c)^B+D, where A=lower asymptote (baseline response), D=upper asymptote (maximum response), C=drug concentration that provokes a response halfway between A and D, B=slope of the curve. The results for selected compounds are set forth in Table 7.

The target in experiment [3] is human BRD4 protein (Homo sapiens (Human), UniProt O60885). Briefly: AlphaScreen assay, BRD4 (bromodomain 1 and 2) with histone H4 peptide. In kind it is binding. As to conditions: for IC50: 25 nM BRD4, histone H4 peptide, 8 concentrations (10 nM-10 μM), read-out: BRD4-BD1-BD2 IC50; for BRD4-BD1-BD2 % Inhibition: test compounds assayed at 10 μM or 31.6 μM for screening. The method, then: The interactions between test compounds and BRD4 protein containing both bromodomain 1 and bromodomain 2 were measured with human BRD4 protein with N-terminal His tag (BPS Bioscience, San Diego, Calif.) using AlphaScreen® assay at room temperature. A 9 μl reaction mixture in BRD Assay Buffer (BPS Bioscience) containing 25 nM BRD4 and test compounds at various concentrations were incubated for 30 minutes followed by additional 30-minute incubation with 1 μl of 20 μM histone H4 peptide (residue 1-21) in the presence of 5% DMSO. Test compounds (see Table 4) were assayed at 10 μM or 31.6 μM for screening purpose, while 8 different concentrations (10 nM-10 μM) were used for IC50 measurements. After the incubation, 20 μl of BRD Detection Buffer (BPS Bioscience) containing 10 μg/ml Glutathione Acceptor beads and 10 μg/ml Streptavidin Donor beads (PerkinElmer, Waltham, Mass.) was added and the mixture was incubated for 50 minutes in darkroom. Binding measurements were taken in duplicate at each concentration using EnSpire® Alpha Multimode Plate Reader Model 2390 (PerkinElmer). The AlphaScreen data were analyzed using Graphpad Prism (La Jolla, Calif.). In the absence of the compound, the AlphaScreen signal (At) in each data set was defined as 100% activity. In the absence of the histone H4 peptide ligand, the AlphaScreen signal (Ab) in each data set was defined as 0% activity. The percent activity in the presence of each compound was calculated according to the following equation: % activity=[(A−Ab)/(At−Ab)]×100, where A=the AlphaScreen signal in the presence of compound; Ab=the AlphaScreen signal in the absence of the histone peptide ligand; and At=the AlphaScreen signal in the absence of the compound. The percent inhibition was calculated according to the following equation: % inhibition=100−% activity.
(In general: In Alpha technology, singlet oxygen from a donor bead excites a nearby acceptor bead.)

Turning to `CCN(CC)C(=O)Sc1c(-c2ccccc2)c2cc(OC)c(-c3c(C)noc3C)cc2[nH]c1=O`, the inhibition at 10 µM in experiment [1] came to 65%.
The same measure, in the same setting: the result for `Cc1noc(C)c1-c1ccc2c(c1)c(-c1ccccc1)cc(=O)n2Cc1ccccc1` reads 74%; that for `Cc1noc(C)c1-c1ccc2[nH]c(=O)cc(-c3ccccc3)c2c1`, 82%.
On the same count and under the same terms, the same measure for `Cc1noc(C)c1-c1ccc2c(-c3ccccc3)cc(=O)[nH]c2c1`: 85%; for `Cc1noc(C)c1-c1ccc2[nH]c(=O)cc(NCc3ccccc3)c2c1`: 99%.
For `O=C(/C=C/c1ccccc1)c1c(-c2ccccc2)c2cc(Cl)ccc2[nH]c1=O` [Compound 1], the IC50 was 0.11 µM in experiment [2] and 2.43 µM in experiment [3]. The “BRD4-BD1-BD2 % Inhibition” value in experiment [3] was found to be 87%.
Turning to `O=C(/C=C/c1cccs1)c1c(-c2ccccc2)c2cc(Cl)ccc2[nH]c1=O` [Compound 7, 6-chloro-4-phenyl-3-(3-(thiophen-2-yl)acryloyl)quinolin-2(1H)-one], the IC50 in experiment [2] is 2.3 µM.
The same measure, in the same setting: the same measure for `CN(C)c1ccc(/C=C/C(=O)c2c(-c3ccccc3)c3cc(Cl)ccc3[nH]c2=O)cc1` [Compound 8, 6-chloro-3-(3-(4-(dimethylamino)phenyl)acryloyl)-4-phenylquinolin-2(1H)-one]: 10.3 µM; for `O=C(/C=C/c1ccc2c(c1)OCCO2)c1c(-c2ccccc2)c2cc(Br)ccc2[nH]c1=O` [Compound 9, 6-bromo-3-(3-(2,3-dihydrobenzo[b][1,4]dioxin-6-yl)acryloyl)-4-phenylquinolin-2(1H)-one]: 5.52 µM; for `O=C(/C=C/c1c(F)cccc1Cl)c1c(-c2ccncc2)c2cc(Cl)ccc2[nH]c1=O` [Compound 15, 6-chloro-3-(3-(2-chloro-6-fluorophenyl)acryloyl)-4-(pyridin-4-yl)quinolin-2(1H)-one]: 1.18 µM.
Regarding `Cc1cncc(F)c1/C=C/C(=O)c1c(-c2cccnc2)c2cc(Cl)ccc2[nH]c1=O` [Compound 16, 6-chloro-3-(3-(3-fluoro-5-methylpyridin-4-yl)acryloyl)-4-(pyridin-3-yl)quinolin-2(1H)-one], in experiment [2], the 50% inhibitory concentration (IC50) turned out to be 0.4 µM.
For `Cc1nc(-c2c(N3CCCCC3)c3cc(Cl)ccc3[nH]c2=O)co1` [Compound 21], the 50% inhibitory concentration (IC50) in experiment [2] worked out at 8.6 µM.
Still for that read-out and setting: the result for `Cc1nc(-c2c(N3CCCC3)c3cc(Cl)ccc3[nH]c2=O)co1` [Compound 22] reads 1.8 µM.
`O=C(/C=C/c1ccccc1)c1c(-c2ccccc2)c2cc(Br)ccc2[nH]c1=O` [Compound 81]: the IC50 in experiment [2] was 3 µM.
`COc1ccc(Cn2c(=O)c(-c3coc(C)n3)c(OS(=O)(=O)c3ccc(C)cc3)c3cc(Cl)ccc32)cc1` [Compound 83]: in experiment [3], the half-maximal inhibitory concentration (IC50) was determined as 0.442 µM and the “BRD4-BD1-BD2 % Inhibition” value was found to be 99%.
For `COc1ccc(Cn2c(=O)c(-c3coc(C)n3)c(OS(=O)(=O)c3ccccc3)c3cc(Cl)ccc32)cc1` [Compound 84] the same measures were 0.372 µM and 98%.
For `COc1ccc(Cn2c(=O)c(-c3coc(C)n3)c(OS(=O)(=O)c3ccc(F)cc3)c3cc(Cl)ccc32)cc1` [Compound 85] the same measures were 0.876 µM and 99%.
For `COc1ccc(Cn2c(=O)c(-c3coc(C)n3)c(OS(=O)(=O)c3ccc(Cl)cc3)c3cc(Cl)ccc32)cc1` [Compound 86] the same measures were 0.67 µM and 99%.
Consider `COc1ccc(Cn2c(=O)c(-c3coc(C)n3)c(OS(=O)(=O)c3ccc4ccccc4c3)c3cc(Cl)ccc32)cc1` [Compound 87], for which, in experiment [3], the IC50 was 0.139 µM and the “BRD4-BD1-BD2 % Inhibition” value is reported as 99%.
For `COc1ccc(Cn2c(=O)c(-c3coc(C)n3)c(OS(=O)(=O)c3cccc4cccnc34)c3cc(Cl)ccc32)cc1` [Compound 88] the same measures were 0.864 µM and 98%.
For `COc1ccc(Cn2c(=O)c(-c3coc(C)n3)c(OS(=O)(=O)c3ccc(-c4ccccc4)cc3)c3cc(Cl)ccc32)cc1` [Compound 89] the same measures were 0.586 µM and 99%.
`Cc1noc(C)c1-c1ccc2[nH]c(=O)c(C(=O)/C=C/c3ccccc3)c(-c3cccnc3)c2c1` [Compound 90]: in experiment [3], the IC50 turned out to be 11.2 µM and the “BRD4-BD1-BD2 % Inhibition” value worked out at 62%.
For `C=CCn1c(Sc2c(-c3ccccc3)c3cc(Cl)ccc3[nH]c2=O)nnc1-c1cccs1` [Compound 97] the same measures were 5.8 µM and 59%.
For `COc1ccc(-c2cc(=O)[nH]c(Sc3c(-c4ccccc4)c4cc(Cl)ccc4[nH]c3=O)n2)cc1` [Compound 98] the same measures were 6.7 µM and 64%.
For `O=c1[nH]c2ccc(Cl)cc2c(-c2ccccc2)c1SC(=S)N1CCOCC1` [Compound 121] the same measures were 7.3 µM and 68%.
With `CCN(CC)C(=S)Sc1c(-c2ccccc2)c2cc(Cl)ccc2[nH]c1=O` [Compound 122], in experiment [3], the IC50 was determined as 26.8 µM and the “BRD4-BD1-BD2 % Inhibition” value is 65%.
For `O=c1[nH]c2cc(Cl)ccc2c(-c2ccccc2)c1Sc1nc2ccccc2s1` [Compound 124], in experiment [3], the IC50 was determined as 17.3 µM and the “BRD4-BD1-BD2 % Inhibition” value came to 50%.
With `CSc1nsc(Sc2c(-c3ccccc3)c3ccc(Cl)cc3[nH]c2=O)n1` [Compound 126], in experiment [3], the 50% inhibitory concentration (IC50) stood at 23.6 µM and the “BRD4-BD1-BD2 % Inhibition” value worked out at 50%.
Take `CCN(CC)CCCNC(=O)C1CCCN(c2c(-c3ccccc3)c3cc(Cl)ccc3[nH]c2=O)C1` (stereo not drawn) [Compound 127]: the IC50 in experiment [2] is 5.45 µM.
Regarding `CNC(=S)N1N=C(c2c(-c3ccccc3)c3cc(Cl)ccc3[nH]c2=O)CC1c1ccccc1` (stereo not drawn) [Compound 128], in experiment [3], the half-inhibitory concentration (IC50) was 16.3 µM and the “BRD4-BD1-BD2 % Inhibition” value is reported as 64%.
In the case of `Cc1ccc(-c2nnc(Sc3c(-c4ccccc4)c4cc(Cl)ccc4[nH]c3=O)n2N)cc1` [Compound 132], in experiment [3], the half-inhibitory concentration (IC50) was 3.7 µM and the “BRD4-BD1-BD2 % Inhibition” value is 92%.
As to `COc1ccc(OC)c(NCc2c(OC)ccc3ccccc23)c1` [Compound 143], the “BRD4-BD1-BD2 % Inhibition” value in experiment [3] was found to be 99%.
`O=c1[nH]c2ccc(Br)cc2c(-c2ccccc2)c1-c1cc(-c2ccccc2)[nH]c(=S)n1` [Compound 144]: in experiment [3], the half-inhibitory concentration (IC50) was found to be 0.049 µM and the “BRD4-BD1-BD2 % Inhibition” value is reported as >90%.
`O=c1[nH]c2ccc(Cl)cc2c(-c2ccccc2)c1-c1cc(-c2ccccc2)[nH]c(=S)n1` [Compound 145]: in experiment [3], the IC50 was 1.44 µM and the “BRD4-BD1-BD2 % Inhibition” value was found to be 72%.
